Test [1] has as its system ras p21 protein. The test can be described thus: Filter assay of GTP hydrolysis by ras p21 protein (32-P gamma-GTP), with and without GAP. Format: biochemical. Particulars: in the presence and absence of GAP; 30 minutes at room temperature. The procedure:
The above four peptides, in the following two experiments, were tested for their abilities to inhibit the hydrolysis of GTP by ras p21 protein, in the presence and absence of GAP. The first experiment involved peptides G65, G73 and 891. It was carried out as follows: purified wild type ras p21 protein was incubated with 0.25 µM 32-P gamma-GTP in 100 mM NaPO4, pH 6.8, 0.5 mM DTT, 0.5 mM EDTA, 0.005% Na cholate, and 0.5 mg/ml BSA for 15 minutes at 30°C. The mixture was then diluted ten fold with TNM buffer (comprising 20 mM Tris-HCl, pH 7.0, 100 mM NaCl, 5 mM MgCl2). 20 µl (0.05 µg of p21) of this mixture was then combined with 2 µl of the peptide in 25 mM NaOAc, pH 5.5 and incubated for 5 minutes at room temperature. The GAP assay, was initiated by the addition of 12 ng GAP in 5 µl TNM buffer with 1 mg/ml BSA or 5 µl TNM BSA buffer for the GAP independent reactions, and the resulting mixture was incubated for 30 minutes at room temperature. The samples were then filtered through nitrocellulose membranes and washed three times with cold TNM. The filters were dried and their radioactivity counted. […] In the presence of GAP, the radioactive ras p21-GTP complex is hydrolyzed to GDP and ras p21 protein, thus reducing the resulting amount of radioactive p21-GTP bound to the filter and consequently, the radioactive counts detected. […]

Test [2] deals with ras p21 protein. The test is described as follows: GDP/GTP ratio assay of p21-GTP hydrolysis (alpha-32-P-GTP, PEI cellulose chromatography), with and without GAP. Format: biochemical. As to conditions: in the presence of GAP; control peptide, no concentration stated. The procedure: Another experiment comparing the efficacy of cGAP 13 and peptide 891 in preventing the hydrolysis of GTP was carried out as follows. The assay measured the ratio of GDP formed resulting from the hydrolysis of GTP to the remaining GTP in the assay solution. Peptides 891, cGAP 13, and G65 were separately tested in the presence and absence of GAP, Peptide G65, which served as a control, and α-32-P-GTP were used.
The assay was carried out as follows. The p21-GTP was diluted at a ratio of 1 to 10 in an assay buffer consisting of TNM at pH 7.0, 1mM DTT, and 100 µM GTP. A mixture consisting of 20 λ of p21 at 0.25 µM, and 2 λ of the peptide (in TNM, 1mM DTT and 100 µM GTP) was prepared. To this mixture was added 5 λ, i.e. 12ng of GAP diluted in TNM and 1 mg/ml BSA; for experiments without GAP, 5λ TNM/BSA were added instead. The resulting mixture was incubated for 30 minutes at room temperature. The reaction was stopped and the nucleotides were eluted from ras p21 protein with 2% SDS, 40 mM EDTA at 65°C for 5 minutes. The nucleotides were chromatographed on PEI Cellulose in 1M LiCl. GTP and GDP spots were visualized with autoradiography and identified by means of standard solutions. The individual spots from the PEI cellulose plates were scraped and the radioactivity counted.

Take “peptide G65: synthetic peptide corresponding to positions 876-890 of the full length GAP; served as a control (CLQKSVQHKWPTNTT; UniProt P20936 876-890, looked up, fragment)”: the “hydrolysis of GTP by ras p21 protein (radioactive counts per minute of ras p21-GTP complex on filter)” value in test [1] is “do not affect the hydrolysis of GTP”. In addition, the “hydrolysis of p21-GTP (ratio of radioactive counts of GDP over GTP)” value in test [2] was “exhibits no inhibitory effect on p21-GTP hydrolysis”.
In the case of “peptide G73: synthetic peptide corresponding to positions 975-990 of the full length GAP (GNVPELPDTTEHSRTD; UniProt P20936 975-990, looked up, fragment)”, the “hydrolysis of GTP by ras p21 protein (radioactive counts per minute of ras p21-GTP complex on filter)” value in test [1] is listed as “do not affect the hydrolysis of GTP”.

(Values after patent publication EP0491828B1, “PEPTIDES FROM GTPase-ACTIVATING PROTEIN (GAP), DIAGNOSTIC AND THERAPEUTIC USE THEREOF” (CHIRON CORPORATION, priority 1989, dated 1999).)
